Results taken from publication PMC7409197, “Adenosine Receptors as Neuroinflammation Modulators: Role of A1 Agonists and A2A Antagonists” (Cells, 2020).

How the values were obtained:
[1] = test system: mixed glial cells; experiment: MTS cell viability in cytokine cocktail (CK) inflammatory model, mixed glial cells; type: cell-based, rat
Method: Newborn male Wistar rats were sacrificed and mixed glial cell cultures were obtained from the cerebral cortices. Cerebral cortices were dissected, and meninges were cleared away. Tissues were treated with trypsin solution (trypsin 0.05% (w/v) trypsin-EDTA 5 mM) for 25 min at 37 °C. The tissue was fully disaggregated by pipetting and the dissociated cells were seeded in a 6-well plate with Dulbecco’s modified Eagle’s/High glucose medium enriched with 100 U/mL penicillin, 100 µg/mL streptomycin and 10% FBS. Fresh medium was changed the next day and then every 3 days decreasing the quantity of FBS. All experiments were carried out after 7–9 days of plating.
Mixed glial cell cultures were divided into 2 groups, one to study A1AR partial agonists and another for A2AAR antagonists. Cells from the first group were pre-treated with 2 µL at three different concentrations of C1 for 15, 30 or 60 min and then with further addition of a pro-inflammatory cocktail of cytokines (TNF-α, 20 ng/mL; IL-1β, 20 ng/mL; IFN-γ 20 ng/mL) for 48 h. […] To study C2 cells were pre-treated with the same CK cocktail for 48 h and then with 2 µL of C2 at three different concentrations for 15, 30, or 60 min (Scheme 1). ZM241385, a well known A2AAR antagonist, was used as reference compound. Furthermore, ligands and CK were tested alone for 15, 30 or 60 min and 48 h respectively.
(§1) 1.7 × 10^4 mixed glial cells were cultured in 98 μL of the specific medium in a 96 well plate overnight. The next day 2 μL of ligand or CK cocktail were added to the well. After all treatments, 20 µL of CellTiter 96® AQueous One Solution Reagent was added in a final volume of 100 µL. Absorbance was read at 490 nm using the plate reader GENiosPro. Cell viability was calculated as percentage using the following formula: Cell viability =OD mean of treated cells/OD mean of control cells × 100

[2] = test system: neuronal cells; experiment: Cell viability in primary neuronal cells with or without CK and AR antagonists; type: cell-based, rat; details: for protection of neurons against neuroinflammatory insult (cell viability): 30 min, with CK
Method: Neurons were obtained from hippocampus or cortex of embryos. Briefly, pregnant rat was scarified and the uterus removed. Embryos were taken out from the uterus and brains were obtained. After removing the meninges, hippocampus and cortex were dissected and homogenated with tweezers. The result was incubated with trypsin for 15 min at 37 °C and then centrifuged 2 min at 1000 rpm. The pellet was resuspended with 15 mL of HBSS/0.37% Glucose/30% FBS and centrifuged as before for three times. Finally, the pellet was resuspended with 15 mL of neurobasal media supplemented with 25 µM of glutamine. The result was filtered and plated. Cells were plated in 24 well plates at 10^5 cells/well [26].
as §1

[3] = test system: mixed glial cells; experiment: Griess assay (nitrite production) in mixed glial cells; type: cell-based, rat; details: 30 min
Method: To test the antioxidant capacity of these new molecules Griess assay was performed. The Griess Reagent System is based in the conversion of sulphanilamide into an azo-compound with the presence of N-1-napthylenediamide dihydrochloride (NED) under acidic condition. 1.7 × 10^4 mixed glial cells were cultured in 98 μL of the specific medium in a 96 well plate overnight. After 24 h the media from each well of the cell culture was transferred into a 96 well plate and then 50 µL of the sulphanilamide solution was added to each well. After 5–10 min of incubation at room temperature (rt), 50 µL of the NED Solution were dispensed to all wells and they were incubated at rt for other 5–10 min. Absorbance was measured within 30 min in the plate reader GENiosPro with a filter between 520 nm and 550 nm. This experiment was performed 3–5 replicates. Concentration of NO¬¬¬¬2¯ in each sample was determined by comparison to a Nitrite standard reference curve.

[4] = test system: mixed glial cells; experiment: Hoechst assay, cell area and circularity in mixed glial cells; type: cell-based, rat; details: compound 1 pre-treatment, compound 2 post-treatment, with CK cocktail
Method: This assay was carried out using Hoechst 33258. 6 × 10^5 mixed glial cells were seeded in a six well plate. After 24 h the media was eliminated, and cell cultures washed with PBS. Then, they were washed with acetic acid/methanol solution 50:50, again washed with PBS and incubated 10 min with a fixative solution. After this, cells were cleaned with distilled water and incubated light protected for 30 min at rt with Hoechst (1 µg/mL). Finally, the dye was discarded, and cells washed with water. Glycerol solution was added and cells were observed under an Olympus microscope. The cell area and circularity were measured using ImageJ as image analyzing software. Area and circularity were calculated as percentage using the following formula:(1) Area or circularity =area or circularity of treated cells/area or curcularity of control cells × 100

[5] = test system: Sprague Dawley rats; experiment: Y Maze short-term memory in LPS neuroinflammation rat model; type: in vivo; details: for short-term memory impairment by LPS (novel arm preference, Y Maze) / short-term memory performance, compound alone (Y Maze): rats; for short-term memory performance, compound alone (Y Maze): saline instead of LPS
Method: Animal procedures were performed in accordance with the European Community guidelines (Directive 2010/63/EU), Portuguese law on animal care (DL 113/2013), and approved by the Instituto de Medicina Molecular Internal Committee and the Portuguese Animal Ethics Committee (Direcção Geral de Veterinária). Environmental conditions were kept constant: food and water ad libitum, 21 ± 0.5 °C, 60% ± 10% relative humidity, 12 h light/dark cycles, 3–5 rats per double-decker ventilated cage. Male Sprague Dawley rats 8 weeks old were divided into the following groups (Table 1):
C1 was dissolved in 5% DMSO + 95% H2O to a final concentration of 7 mg/mL and C2 was dissolved in DMSO to a final concentration of 5 mg/mL. Accordingly, vehicle for G1 was 5% DMSO + 95% H2O and for G2 was DMSO.
Animals were anesthetized with a cocktail of 75 mg/kg ketamine + 1 mg/kg dexmedetomidine. Once rats were deeply anesthetized, the head was fixed into a stereotaxic frame and an incision made on the scalp to expose the skull. Coordinates for injection were AP -1.0, ML ± 1.5, DV -3.7 mm. For G1, LPS was delivered bilaterally 5 µL of a 1 µg/µL LPS solution per hemisphere, and C1 was delivered also i.c.v. 15 min before the LPS injection, 5 µL of a 7 µg/µL solution. Flow rate was kept at 1 µL/min, using an automatic injector coupled to a 10 µL hamilton syringe gauge 30. After each injection, 5 min were allowed for diffusion of the drugs before slowly removing the needle. After the procedure, rats were sutured, administered atipamezole (1 mg/kg) to reverse anesthesia, and brought back to a heated cage until fully recovered. For G2, rats were injected i.p. with a 2.5 mg/kg solution of C2, 30 min after the i.c.v. injection of LPS 5 µg/5 µL per hemisphere, in total of 10 µg. Rats were monitored for sickness behavior (body temperature, general activity) and given access to gel food in the first 48 h.
Y Maze is a behavior test useful to measure short-term spatial working memory. Animals are introduced in the maze always in the same starting position, at the end of the start arm. An initial habituation phase of 8 min, animals freely explore 2 of the arms, the 3rd being closed. Sixty minutes after the habituation period animals are placed again in the maze for 5 min this time with all 3 arms available to exploration. Using the Smart video tracing software, each animal’s route was registered. The time spent in the arm initially closed, which for the animal is the novel, unexplored environment, is calculated in relation to the time spent in the already familiar arms.

How did the “cell viability vs. control” value ([1]; pre-treatment 5.5 µM for 30 min, then CK cocktail 48 h) turn out when `OC[C@H]1O[C@@H](n2cnc3c(NC4CCCC4)nc(Cl)nc32)C[C@@H]1O` [Compound C1, 2-chloro-N^6-cyclopentyl-2′-deoxyadenosine] was run?
Its value is 113 ± 3.1%.

What about the “prevention of CK aggression (cell viability, words)” value ([1]; pre-treatment before CK cocktail 48 h, C1 2-30 µM, CCPA 10 nM 30 min) of the same compound?
Its value is “able to prevent the CK aggression”.

And the “protection of neurons against neuroinflammatory insult (cell viability)” value ([2]; C1 5.5 µM, C2 10 nM)?
The value was “beneficial effects in protecting neurons”.

What about the “cell viability, effect against A1AR antagonist DPCPX” value ([2]; neurons, C1 5.5 µM, DPCPX 100 nM, in presence of CK) of the same compound?
The value was “partially counteract the effect of DPCPX”.

And the “antioxidant activity (Griess)” value ([3]; 5.5 µM, alone and in combination with CK)?
The value was “did not show any antioxidant activity”.

And the “cell area and circularity (Hoechst), effect against CK aggression” value [4]?
Its value is “protective effect”.

What about the “short-term memory impairment by LPS (novel arm preference, Y Maze)” value ([5]; i.c.v. 5 µL of 7 µg/µL 15 min before i.c.v. LPS) of the same compound?
Its value is “rescued”.

And the “short-term memory performance, compound alone (Y Maze)” value ([5]; i.c.v.)?
The value was “reduction in the short-term memory performance”.

Which results are given for `CCn1c(Cl)nc2c(N)nc(OCCc3ccccc3)nc21` [Compound C2, 8-chloro-9-ethyl-2-phenethoxyadenine]?
cell viability vs. control ([1]; CK cocktail 20 ng/mL 48 h, then ligand 5 nM for 15 min): 138 ± 1.7%; cell viability vs. control ([1]; CK cocktail 20 ng/mL 48 h, then ligand 10 nM for 30 min): 233 ± 3.4%; protection of neurons against neuroinflammatory insult (cell viability) ([2]; C1 5.5 µM, C2 10 nM): beneficial effects in protecting neurons; cell viability, combination with A2AAR antagonist SCH58261 ([2]; neurons, C2 10 nM, SCH58261 50 nM): did not exhibited a synergic effect; nitrite levels in presence of CK cocktail ([3]; 10 nM, after CK cocktail): able to decrease the high nitrite levels; levels of nitrite produced ([3]; 10 nM, alone): lower than those obtained in control; cell area and circularity (Hoechst), effect against CK aggression [4]: protective effect; blood brain barrier (BBB) crossing ([5]; inferred from rescue of CNS insult after i.p. injection in rats): readily crosses the BBB; short-term memory impairment by LPS (novel arm preference, Y Maze) ([5]; 2.5 mg/kg i.p. 30 min after i.c.v. LPS): rescued; short-term memory performance, compound alone (Y Maze) ([5]; 2.5 mg/kg i.p.): devoid of any effects in memory performance
